In experiment [1] the test system is NFkB signaling. Kind of experiment: In vivo NFkB signaling of Raji cells implanted in murine brain (BLI). On the set-up: species or system athymic mice. The note with it: 2.5 mg/kg and 5 mg/kg intraperitoneally the day after implantation. As for the experimental part:
An in-vivo experiment was also performed to assess impact of Agelastatin A on NFkB signaling in Raji cells implanted inside the murine brain. In serum free medium, Raji cells were transfected with NFkB reporter system. 25,000 cells were intracerebrally injected into athymic mice. […] Bioluminescence imaging (BLI) of NFkB activity of intracerebral Raji lymphoma cells were measured on day 4 post intracerebral implantation.

The test system of experiment [2] is Raji lymphoma cells. Briefly: Ex vivo murine brain slice invasion assay. The following applies: cells pretreated with 100 nM for four days; day 5 post-incubation; vs DMSO. Format: cell-based. The method, then: The impact of Agelastatin A on the brain invasiveness of Raji B lymphoma cells was assessed ex vivo using a modified murine brain slice invasion assay. Briefly, these cells were first pre-transfected with luciferase (SP-DiI; Molecular Probes) just prior to invasion assays. Slice cultures of whole brains were produced from C57 mice. Two-month-old male C57BL/6J mice were sacrificed by CO2 inhalation. Mice brains were removed, placed into sterile ice-cold PBS, and then coronally sectioned with a 1 mm coronal brain matrix into 1 mm slices at +2.00 to −1.00 bregma. Brain slices were placed aseptically onto transwell (8 μm pore size) membranes in six-well dishes. Culture media (DMEM, 10% FCS, […], 100 U/ml penicillin, 100 μg/ml streptomycin, and 2.5 μg/ml amphotericin B) was added into each well to a point just below that which would cover the brain slice. […] Cells were allowed to attach to the brain surface for one hour before the media was adjusted to just cover the surface of the slice. After 5 days incubation, the extent of lymphoma cell invasion into the brain slice was quantitated by bioluminesence imaging (BLI) in both slice and media. Brain slices were fixed in 4% paraformaldehyde for CD20 staining to identify Raji cells, which had invaded the brain slices. […]

Experiment [3] deals with osteopontin mRNA. Kind of experiment: Osteopontin mRNA real-time PCR. The format is cell-based. The following applies: at 12 h; normalized to GAPDH. The method, then: B lymphoma cells were grown at 1×10^6 cells in complete media. Cells were harvested by centrifugation, and total RNA was extracted by Trizol and PureLink kit as described by the manufacturer (Invitrogen: Carlsbad, Calif.). Residual genomic DNA contamination was removed by DNA-Free kit (Applied Biosystems: Carlsbad, Calif.). Total RNA was converted to cDNA using the High Capacity Reverse Transciption kit (Applied Biosystems: Carlsbad, Calif.) and diluted to 4 ng/μl RNA with nuclease-free water.
Ct values were determined by instrument software and relative osteopontin mRNA values were normalized to GAPDH. Significant difference of Ct values was determined using a two-tailed Student's T-test.
(In general: Quantitative PCR measures a nucleic acid by following its amplification.)

Experiment [4] has as its system NFkB signaling. Kind of experiment: NFkB reporter assay in Raji cells. Format: cell-based. The note with it: 100 nM and 500 nM for 48 hours. From the text:
10^5 Raji cells were co-transfected overnight with a Cignal firefly luciferase-expressing NFkB reporter plasmid (NFkBr; SA Biosciences) together with a constitutively expressed Renilla luciferase reporter plasmid containing a CMV promoter. A promoterless vector (Neg-Luc) was co-transfected with the Renilla reporter for control. […] Data are presented as a ratio of firefly-to-Renilla luciferase luminescence.

In experiment [5] the test system is Raji lymphoma cells. Briefly: Raji orthotopic murine CNS lymphoma model. The note with it: 1, 2.5 or 5 mg/kg i.p. for four days; vs vehicle control. The format is in vivo, athymic mice. The method, then: Athymic mice (nu/nu; 8-10 weeks old) were anesthetized with gasiform isofluorane and 25,000 Raji cells transfected with luciferase (as described in in vitro study) were stereotactically injected into the left cerebral hemisphere at coordinates (AP: 0.5 mm, LM: 2.5 mm, DV: 3 mm) from the bregma and skull at a volume of 5 μl and at a rate of 1 μl/min. The needle was left in place for 5 min after injection.
BLI was conducted using a Xenogen Lumina optical imaging system (Caliper Life Sciences, Hopkinton, Mass.). Mice were anesthetized with isofluorane before intraperitoneal injections of luciferin at a dose of 150 mg/kg, providing a saturating substrate concentration for luciferase enzyme. Peak luminescent signals were recorded 10 minutes after luciferin injection. Regions of interest encompassing the intracranial area of signal were defined using Living Image software, and the total photons/s/steradian/cm^2 was recorded.
Raji murine CNS lymphoma model was created as described in in vivo study section. After bioluminesence imaging (BLI) scanning on day 4 post intracerebral injection, animals were randomly assigned to four different groups. […] […] BLI was used for real time monitoring of tumor growth. Differences in tumor growth were statistically analyzed by ANOVA.

Molecules are shown by their SMILES. Entries after “also recorded” stand apart in the source; their conditions may differ.

Regarding `CN1C(=O)N[C@H]2[C@@H]3NC(=O)c4ccc(Br)n4[C@@H]3C[C@]21O` [AA, agelastatin A, reference compound], the “NFkB signaling activity of Raji cells implanted in the murine brain (BLI)” value in experiment [1] was “can impact the molecular signaling activity (NFkB signaling pathway) in a brain tumor; also recorded: decreased the NFkB signaling activity”. In addition, the “brain invasiveness of Raji lymphoma cells (ex vivo brain slice)” value in experiment [2] was “significantly decreased and disabled the brain invasiveness; also recorded: decreases the brain invasiveness of Raji lymphoma cells; also recorded: No AA-treated lymphoma cells were found in the brain slice”. The “expression of OPN messenger RNA (PCR)” value in experiment [3] is recorded as “transcriptionally downregulating osteopontin; also recorded: decreases the expression of OPN messenger RNA”. Moreover, the “NFkB signaling in Raji cells (reporter assay)” value in experiment [4] is “significantly downregulated NFkB signaling; also recorded: attenuates the NFkB signaling”. For the same compound, in experiment [5], the “CNS lymphoma tumor growth (BLI)” value is “significantly decreased the tumor growth; also recorded: therapeutic effect of AA treatment on the CNS lymphoma growth” and the “survival (Kaplan-Meier)” value was “significantly prolonged the survival; also recorded: survival prolongation”.
